Laboratory results published in patent publication US20090011974A1, “Scavenger Receptor B1 (Cla-1) Targeting for the Treatment of Infection, Sepsis and Inflammation” (priority 2002, published 2009).
Read-outs that look alike come from different tables or passages of the source. Where no end group is shown, it is not given here. [ ]: non-standard residue; d: D form.

How the values were obtained:
[1] = system: SR-BI/CLA-1; type: cell-based, mouse; conditions: 24 h; for activity as modulator of SR-BI, ABCA1 and IL-1β gene expression compared with other LPS preparations / relative activities for the suppressive effect on SR-BI/CLA-1 and ABCA1 expression and SR-BI/CLA-1 protein expression: 10 ng/ml, RAW cells
Description: (§1) Cell culture and treatment.
(§2) RNA isolation and cDNA preparation. The total RNA of cultured cells is isolated and purified using Trizol reagent (Gibco BRL, Grand Island, N.Y.) according to the manufacturer's protocol. The concentration and quality of RNA were determined by UV absorbance at 260 and 280 nm. To prepare cDNA, total RNA (3 μg) is added to a mixture containing the following: 6 μl of 5× first-strand buffer (75 mM KCl, 50 mM Tris-HCl [pH 8.3], 3 mM MgCl2), 1.5 μl of deoxynucleoside triphosphates (10 mM [each] dATP, dCTP, dTTP, and dGTP), 1.5 μl of 0.0156 U (0.4 μg) of random hexamers, and 0.2 U of Moloney murine leukemia virus reverse transcriptase (all from Gibco BRL, Gaithersburg, Md.); 0.004 U of RNasin (Promega, Madison, Wis.); and RNase-free water to a final volume of 30 μl per 3 μg of cDNA. Samples are incubated at 37° C. for 60 min. Preliminary experiments are undertaken to achieve optimal conditions for amplifying mRNA for each of the gene products.
Reverse transcription-PCR (RT-PCR). A mixture of 37.2 μl of RNase-free water, 5 μl of 10× reaction buffer, and 0.5 μl (5 U) of AmpliTaq Gold DNA polymerase (Applied Biosystems, Roche Molecular Systems, Inc., Branchburg, N.J.), sense and antisense primers (1 μl each), and 0.3 μl (3 μCi) of [α-^32P]dCTP (Amersham Pharmacia Biotech, San Diego, Calif.) is vortexed, and 46 μl is aliquoted into each tube, containing 4 μl of cDNA, and overlaid with 50 μl of mineral oil (Sigma Chemical Co.). cDNA is amplified in a Perkin-Elmer (Norwalk, Conn.) System 2400 DNA thermal cycler, with denaturation for 1 min at 94° C., annealing for 1 min at 50° C., and extension for 2 min at 72° C. for GADPH (glyceraldehyde-3-phosphate dehydrogenase) (19 cycles), ABCA1 (28 cycles), SR-BI/CLA-1, and interleukin-1 [3 (IL-1β (27 cycles). The primers used in these analyses are as follows: GADPH, (SEQ ID NO:1) 5′-[…]-3′ and (SEQ ID NO:2) 5′-[…]-3′; SR-BI/CLA-1, (SEQ ID NO:3) 5′-CCA […] GGC TTC TGC-3′ and (SEQ ID NO:4) 5′-CTG AAT GGC CTC CTT ATC C-3′; ABCA1, (SEQ ID NO:5) 5′-CAACTACAAAGCCCTCTTTG-3′ and (SEQ ID NO:6) 5′-CTTGGCTGTTCTCCATGAAG-3′; and IL-1β, (SEQ ID NO:7) 5′-CTG AAA GCT CTC CAC CTC-3′ and (SEQ ID NO:8) 5′-GTG CTG ATG TAC CAG TTG-3′.
(§3) For the densitometry analysis, the intensities of the bands are measured with the Gel-Pro Analyzer 3.0 computer program and normalized with GADPH intensity.

[2] = system: IL-1β; assay: RT-PCR of IL-1β mRNA in RAW cells exposed to LPS preparations; type: cell-based, mouse; conditions: 24 h
Description: as §1, §2
(§4) Reverse transcription-PCR (RT-PCR). […]
as §3

[3] = system: ABCA1; assay: RT-PCR of ABCA1 mRNA in RAW cells exposed to LPS preparations; type: cell-based, mouse; conditions: inhibitor 20 mM added 2 h before LPS 10 ng/ml, 24 h
Description: as §1, §2, §4, §3

[4] = target: T1, CLA-1 (Homo sapiens, UniProt Q8WTV0); type: binding; conditions: for competition of unlabelled ligands against 125I-LPS (0111:B4): 100× excess unlabeled ligand, CLA-1 overexpressing and mock-transfected cells
T1 construct: using the expression plasmid pTRE2 (Clontech, Pal Alto, Calif.), encoding a CLA-1 protein (pTRE2-CLA-1); expressed in transfected cells; host or cells: HeLa (Tet-off) cells (Clontech), stably co-transfected with pTRE2-CLA-1 and pTK-Hyg and selected with hygromycin
T1 sequence (Q8WTV0 1-509 isoform Q8WTV0-2): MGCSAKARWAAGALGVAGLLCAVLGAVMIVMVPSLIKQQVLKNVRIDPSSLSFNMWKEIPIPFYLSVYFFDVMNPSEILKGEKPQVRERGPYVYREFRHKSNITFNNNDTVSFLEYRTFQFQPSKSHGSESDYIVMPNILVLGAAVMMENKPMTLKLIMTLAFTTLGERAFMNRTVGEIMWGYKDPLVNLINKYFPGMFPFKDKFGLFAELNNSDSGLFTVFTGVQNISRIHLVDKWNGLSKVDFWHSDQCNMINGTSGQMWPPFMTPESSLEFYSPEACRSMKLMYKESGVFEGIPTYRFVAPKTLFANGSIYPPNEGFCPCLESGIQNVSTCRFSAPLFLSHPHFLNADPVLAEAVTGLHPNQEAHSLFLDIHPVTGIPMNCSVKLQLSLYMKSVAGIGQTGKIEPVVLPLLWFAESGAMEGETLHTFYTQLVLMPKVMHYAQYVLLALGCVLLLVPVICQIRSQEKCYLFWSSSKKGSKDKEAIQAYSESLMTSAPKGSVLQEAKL
Description: The lipopolysaccharide 0111:B4 (Sigma) is iodinated as reported by Ulevitch, R J. (1978) (“THE PREPARATION AND CHARACTERIZATION OF A RADIO IODINATED BACTERIAL LIPOPOLYSACCHARIDE,” Immunochemistry 15:157-164). […] After a 2-hr-incubation on ice, the cells are rinsed with ice-cold HBSS and utilized for radioactivity measurements as reported by Bocharov, A. V. et al. (2001) (“CHARACTERIZATION OF A 95 KDA HIGH AFFINITY HUMAN HIGH DENSITY LIPOPROTEIN-BINDING PROTEIN,” Biochemistry 40:4407-4416). Specific binding is determined as the difference between total and non-specific binding, and normalized by protein content.
HeLa cells grown until 70% confluence in DMEM with 10% FCS are washed with PBS and cultured for 24 hr in serum-free DMEM. […] After washing with ice-cold PBS, the cells are hydrolyzed in 1 N NaOH. Radioactivity is counted in an LKB Wallac Ultragamma counter.

[5] = system: THP-1 cells; assay: LPS-stimulated cytokine production in THP-1 cells (ELISA); type: cell-based, human; conditions: 10 ng/ml LPS, 24 h
Description: (§5) THP-1 and CLA-1 overexpressing HeLa cells. Human monocyte-macrophages, THP-1 (ATCC [American Type Culture Collection] TIB 71), are grown in 48-well plates in RPMI 1640 medium supplemented with 10% fetal calf serum (FCS), penicillin (100 U/ml), and streptomycin (100 μg/ml). All experiments involving LPS-induced interleukin production utilize the same media except that 1% FCS was used. Hela cells were cultured as previously reported (Vishnyakova, T. G. et al. (2003) “BINDING AND INTERNALIZATION OF LIPOPOLY[…] CLA-1, A HUMAN ORTHOLOGUE OF RODENT […] RECEPTOR B1,” J. Biol. Chem 278:22771-22780).
Assays for cytokines and lactate dehydrogenase (LD). […]

[6] = Limulus amebocyte lysate (LAL) assay for LPS incubated with peptides; conditions: RPMI-1640 1% FCS or DPBS; 10 ng/ml LPS, 10 μg/ml peptide, 37° C., 24 h
Source text: Limulus Amebocyte Lysate (LAL) Assay for LPS.
Limulus amebocyte lysate (LAL) assay for LPS.

[7] = system: THP-1 cells; assay: LTA, Gro-EL and HSP60 stimulated IL-8/IL-6 production in THP-1 cells; type: cell-based, human; conditions: 1 μg/ml LTA or Gro-EL, 10-200 fold excess of peptide
Description: as §5
(§6) Assays for cytokines and lactate dehydrogenase (LD).

[8] = system: THP-1 cells; assay: TNFα-induced IL-6 and IL-8 secretion in THP-1 cells; type: cell-based, human
Source text: as §6

[9] = system: SR-BI/CLA-1; assay: Competition for 125I-HDL binding sites in RAW cells; design: species or system mouse; conditions: 50 μg/ml LPS analogs
Description: Competition Binding Experiments. RAW cells are cultured for 24 hr in serum free DMEM before experiment. […] Cell radioactivity is measured as described in the “LPS-binding assay” section.

[10] = target: T1, CLA-1; assay: 125I-HDL binding and HDL-CE uptake in CLA-1 stably transfected HeLa cells
Description: CLA-1 Overexpression HeLa cells. HeLa (Tet-off) cells (Clontech, Pal Alto, Calif.) are grown in DMEM (Invitrogen), supplemented with 10% fetal calf serum, 2 mM glutamine, 100 IU/ml of penicillin, 100 μg/ml of streptomycin, and 100 μg/ml of G418. Cells were transfected with FuGENE-6 (Roche Diagnostics), using the expression plasmid pTRE2 (Clontech, Pal Alto, Calif.), encoding a CLA-1 protein (pTRE2-CLA-1). Cells were co-transfected with pTRE2-CLA-1 and pTK-Hyg (Clontech, Pal Alto, Calif.), using a 1:20 ratio, and selected with 400 μg/ml of hygromycin. Hygromycin resistant cells were screened for the expression of the CLA-1 protein by utilizing rabbit anti-SR-BI/CLA-1 (Novus Biological, Inc) by Western blotting.
HDL-Binding And Cholesteryl Oleoyl Uptake Assays. Saturation binding experiments are performed at 4° C. using ^125I-HDL concentrations between 1.25 and 40 μg/ml. […] After a 2 hr-incubation on ice, specific binding is determined as reported by Bocharov, A. V. et al. (2001) (“CHARACTERIZATION OF A 95 KDA HIGH AFFINITY HUMAN HIGH DENSITY LIPOPROTEIN-BINDING PROTEIN,” Biochemistry 40:4407-4416).
HDL-[^3H]CE uptake experiments are performed in a serum free DMEM containing 0.2% BSA. […] Specific uptake is determined as the difference between total and nonspecific uptake.

[11] = target: T2, CLA-1 (CD36 and LIMPII Analogous-1), human scavenger receptor class B type I (human, UniProt Q8WTV0 1-552); assay: confocal microscopy of Alexa 568-labelled peptide uptake, CLA-1 HeLa against mock HeLa
T2 construct: whole, on cells; Target is CLA-1 on stably transfected HeLa cells, compared with mock-transfected HeLa cells, which carry a low endogenous level of CLA-1; also called SR-BI/CLA-1; human SR-BI
T2 sequence (looked up): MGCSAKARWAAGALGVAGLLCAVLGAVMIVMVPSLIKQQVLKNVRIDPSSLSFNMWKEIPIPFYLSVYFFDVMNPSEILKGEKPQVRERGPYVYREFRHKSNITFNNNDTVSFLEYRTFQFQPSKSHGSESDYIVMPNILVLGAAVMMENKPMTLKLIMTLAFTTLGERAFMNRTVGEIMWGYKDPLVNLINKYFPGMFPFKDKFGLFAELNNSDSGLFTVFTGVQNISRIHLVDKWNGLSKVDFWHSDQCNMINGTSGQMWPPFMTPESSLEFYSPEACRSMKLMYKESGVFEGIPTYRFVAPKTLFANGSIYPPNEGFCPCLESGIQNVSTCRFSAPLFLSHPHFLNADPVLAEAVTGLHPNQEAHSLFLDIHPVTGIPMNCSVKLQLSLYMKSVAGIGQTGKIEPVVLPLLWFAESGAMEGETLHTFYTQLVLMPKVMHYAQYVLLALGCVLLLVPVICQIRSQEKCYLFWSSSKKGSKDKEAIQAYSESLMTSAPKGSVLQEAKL

[12] = inhibitor 20 mM added 2 h before LPS 10 ng/ml

## Cc1ccc(S(=O)(=O)N[C@@H](Cc2ccccc2)C(=O)CCl)cc1 [TPCK, tosylphenyl chloromethyl ketone]
[1]; [12]
  effect on LPS-induced SR-BI/CLA-1 mRNA level decrease: effectively prevented
[2]; [12]
  effect on LPS-induced increase of IL-1β mRNA: effectively prevented
[3]
  effect on LPS-induced ABCA1 mRNA level decrease: effectively prevented

## DWLKAFYDKVAEKLKEAF-P-DWLKAFYDKVAEKLKEAF [D-37PA] ([dD][dW][dL][dK][dA][dF][dY][dD][dK][dV][dA][dE][dK][dL][dK][dE][dA][dF][dP][dD][dW][dL][dK][dA][dF][dY][dD][dK][dV][dA][dE][dK][dL][dK][dE][dA][dF]) [Peptide D-37PA]
[4]; 1 μg/ml 125I-LPS, mock transfected and CLA-1 overexpressing HeLa cells
  competition against 125I-LPS: competed in a dose-dependent manner
[5]
  effect on LPS-stimulated cytokine (IL-8, IL-6, TNF-α) production: similarly effective in a blocking
[6]
  effect on LAL activity of LPS in media containing bivalent cations: neither L-37PA nor D-37PA affected LPS's endotoxin activity
[7]
  effect on LTA and Gro-EL stimulated IL-8 and IL-6 production: similarly effective in blocking
[8]
  effect on TNFα-induced IL-6 and IL-8 production: neither peptides was effective in blocking

## diphosphoryllipid A [DPLA]
[4]
  competition of unlabelled ligands against 125I-LPS (0111:B4): compete against iodinated LPS in both cell lines
[1]
  activity as modulator of SR-BI, ABCA1 and IL-1β gene expression compared with other LPS preparations: the same activity as the complete form of LPS from E. coli
  relative activities for the suppressive effect on SR-BI/CLA-1 and ABCA1 expression and SR-BI/CLA-1 protein expression: LPS (Re595)>LPS (0111:B4)>DPLA>MPLA
[9]
  decrease of 125I-HDL-binding by forms of LPS: similarly decreased

## lipid A
[10]
  competition for 125I-HDL-binding to CLA-1 overexpressing human HeLa cells: all competed

## monophosphoryllipid A [MPLA]
[4]
  competition of unlabelled ligands against 125I-LPS (0111:B4): compete against iodinated LPS in both cell lines
[1]
  activity as modulator of SR-BI, ABCA1 and IL-1β gene expression compared with other LPS preparations: decreased activity compared to the other LPS derivatives
  relative activities for the suppressive effect on SR-BI/CLA-1 and ABCA1 expression and SR-BI/CLA-1 protein expression: LPS (Re595)>LPS (0111:B4)>DPLA>MPLA
[1]; listed as Re595 MPLA
  activity as modulator of SR-BI, ABCA1 and IL-1β gene expression compared with other LPS preparations: less potent modulator
[2]; 10 ng/ml, RAW cells
  potency for IL-1β gene induction relative to Re595 LPS or DPLA: approximately one-half

B1: 18A (peptide)
peptide: DWLKAFYDKVAEKLKEAF
notes: Synthetic single class A amphipathic helix; also called 18PA; L18PA
[11]
  binding result: no binding
